According to patent US10385085B2, “Crystal forms of sialic acid or salt or solvate thereof” (Ultragenyx Pharmaceutical Inc., priority 2015, dated 2019):
≈ marks a conversion by molar mass, not a printed value. Where “and” joins values, the source holds several entries; their conditions need not be identical. Identical values can stand only once. Like-named read-outs stand apart in the source and are kept apart here.

Key:
Format in all cases: physicochemical
[1] = Thermogravimetric/Differential Thermal Analysis (TG/DTA)
Procedure: Approximately, 10 mg of material was weighed into an open aluminium pan and loaded into a simultaneous thermogravimetric/differential thermal analyser (TG/DTA) and held at room temperature. The sample was then heated at a rate of 10° C./min from 25° C. to 300° C. during which time the change in sample weight was recorded along with any differential thermal events (DTA). Nitrogen was used as the purge gas, at a flow rate of 300 cm^3/min.

[2] = Slurries of Form 1 at 5° C. followed by XRPD over time
Procedure: Due to the discolouration of samples during slurry experiments in water and water/acetic acid mixtures, slurries of sialic acid (Form 1) were made at 5° C. in water, water/acetic acid (80/20 v/v) mixture, ethyl acetate and acetic acid and stirred for […]. Diffractograms of the slurried solids were recorded after 10 minutes, 4 hours, 20 hours and 28 hours. Form 5 was obtained in slurries containing water at all time points. Form 1 was obtained for acetic acid and ethyl acetate for all time points.

[3] = 7 day stress stability, chemical stability by HPLC; details: for Chemical stability: 1 week stress test, conditions studied; for Sialic acid Area % (HPLC): two injections; for HPLC purity of recovered samples: all three conditions (ambient; 40° C./75% RH; 80° C.)
Procedure: The chemical purity was measured on an Agilent HP1100 HPLC system fitted with an Agilent variable wavelength UV detector. Samples were prepared by dissolving in diluent at a concentration of 1 mg/mL before being analysed under the following HPLC conditions:
(§1) The selected Forms (5, 3 and 2) were fully characterized by PLM, XRPD, ^1H NMR and IR spectroscopy, DSC, TG/DTA, GVS (with post-GVS XRPD), Karl Fischer titration for water content and HPLC analysis for purity. All of these forms with the addition of Form 1 were also placed under a stress-stability test, at three different conditions for one week (ambient conditions, 40° C. and 75% relative humidity, 80° C.). In addition to this, an approximate solubility test was conducted on the different solid forms using a solvent addition method.
(§2) All four Forms (1, 2, 3 and 5) were placed under 7 day stress stability testing. This was carried out by placing the four forms under three different conditions for one week. Their physical stability was then analyzed by comparing the diffractograms and the chemical stability was checked by HPLC.

[4] = 7 day stress stability, physical form by XRPD; details: for Stability as a physical form (XRPD): 1 week stress test, overall
Procedure: XRPD analysis was carried out on a Panalytical X′pert Pro, scanning the samples between 3 and 35° […]. The material was gently ground and loaded onto a multi well plate with Kapton or mylar polymer film to support the sample. The multi well plate was then loaded into a Panalytical diffractometer running in transmission mode and analysed, using the following experimental conditions.
as §1, §2

[5] = HPLC-UV chemical purity; details: for HPLC (purity): summary Table 13
Procedure: The chemical purity was measured on an Agilent HP1100 HPLC system fitted with an Agilent variable wavelength UV detector. Samples were prepared by dissolving in diluent at a concentration of 1 mg/mL before being analysed under the following HPLC conditions: […]

[6] = Approximate aqueous solubility of the solid forms (solvent addition method); details: for solubility / Aqueous Solubility, Solubility in g/L: deionized water; for solubility: water, thermodynamic from solid
Procedure: as §1
Approximately 50 mg of each form (1, 2, 3 and 5) was weighed into a 2 ml vial. 20 μl aliquots of deionized water was added to each vial until complete dissolution of the solid was observed. The volume was noted down and the approximate water solubility calculated.

[7] = Competitive slurry experiments (polymorph stability)
Procedure: Competitive slurry experiments were conducted between Forms 1 and 3 and between Forms 1 and 2. A mixture of the two forms (25 mg per form) being investigated was slurried in 1 mL of solvent for one day at 20° C. or 60° C. in five different solvents (acetone, acetic acid, ethanol, ethyl acetate and ethynol).
Competitive slurries were performed to compare the relative stability between two forms at a given temperature in a given solvent.

[8] = PLM (morphology) of the solid forms; details: for PLM (morphology): particle shape
[9] = Differential Scanning Calorimetry (DSC)
Procedure: Approximately, 5 mg of material was weighed into an aluminium DSC pan and sealed non-hermetically with a pierced aluminium lid. The sample pan was then loaded into a Seiko DSC6200 (equipped with a cooler) cooled and held at 25° C. Once a stable heat-flow response was obtained, the sample and reference were heated to 210° C. at a scan rate of 10° C./min and the resulting heat flow response monitored. Nitrogen was used as the purge gas, at a flow rate of 50 cm^3/min.

[10] = Gravimetric Vapour Sorption (GVS) with post-GVS XRPD; details: for GVS mass difference: between 0-90% relative humidity; for Polymorphic form after GVS (XRPD): material reclaimed after GVS run
Procedure: Approximately 10-20 mg of sample was placed into a mesh vapour sorption balance pan and loaded into an IGASorp Moisture Sorption Analyser balance by Hiden Analytical. The sample was subjected to a ramping profile from 40-90% relative humidity (RH) at 10% increments, maintaining the sample at each step until a stable weight had been achieved (98% step completion). After completion of the sorption cycle, the sample was dried using the same procedure to 0% RH, and finally taken back to the starting point of 40% RH. The weight change during the sorption/desorption cycles were plotted, allowing for the hygroscopic nature of the sample to be determined.

[11] = Desolvation / dehydration on heating, form checked by XRPD
Procedure: A weight loss of 33.1% is observed, prior to decomposition, which coincides with an onset in the DTA profile at ca. 108.8° C. (onset of the endotherm). The second endothermic event corresponds with decomposition at ca. 186.3° C. (onset of the endotherm). The 33.1% of loss of weight corresponds to 1.96 molecules of DMSO for 1 molecule of sialic acid. It is thus very likely that Form 4 is a stoichiometric bis-solvate (2:1). The ^1H NMR spectrum is consistent with sialic acid. The only noticeable difference between the spectra of Form 1 and Form 4 is the relative size of the resonance at ca. 2.5 ppm. This is due to DMSO, which further supports that Form 4 is a DMSO solvate.
Referring to PLM images (FIG. 20), the habit of Form 5 is block-like with a length around 100 μm. Strong birefringence is observed. […] Further weight losses are present, which may be due to decomposition. The loss of weight of 10.5% correlates very well with the KF Titration (10.34%). It is very likely Form 5 is a dihydrate (expected loss of weight for a dihydrate is 10.44%). […] This possibly indicates the formation of a new anhydrous form by desolvation of Form 5 (onset seen for Form 1 is ca. 188.9° C.). The difference between the TG/DTA and the DSC traces is likely to be due to the difference in pan (open pan for TG/DTA and pierced closed pan for DSC). […]

[12] = after 1 week under 40° C., 75% RH
[13] = after 1 week under ambient conditions
[14] = acetone, ethanol, ethyl acetate, ethynol, 20° C. or 60° C.
[15] = 1 week under ambient conditions

| SMILES | TGA Decomposition temperature [1] | Chemical stability [3] | Sialic acid Area % (HPLC) [3, 12] | Sialic acid Area % (HPLC) [3, 13] | HPLC purity of recovered samples ([3]; after 1 week) | Stability as a physical form (XRPD) [4] | HPLC (purity) [5] | PLM (morphology), particle size [8] [μm] | PLM (morphology) [8] | DSC (thermal events) Endotherm [9] | Hygroscopicity (GVS) [10] | Stability when exposed to different humidity levels [10] | XRPD post DVS [10] | GVS mass difference [10] [%] | Polymorphic form after GVS (XRPD) [10] | TGA (weight loss) [1] [%] | TGA temperature of the weight loss [1] | Physical form (XRPD) after stress ([4]; 1 week at 80° C.) | Physical form (XRPD) after stress [4, 15] | Stability - XRPD post Stability ([4]; at 80° C.) | further results |
| --- | --- | --- | --- | --- | --- | --- | --- | --- | --- | --- | --- | --- | --- | --- | --- | --- | --- | --- | --- | --- | --- |
| CC(=O)N[C@H]1[C@H]([C@H](O)[C@H](O)CO)OC(O)(C(=O)O)C[C@@H]1O (stereo partly drawn) [Form 1, N-acetylneuraminic acid] | at 190.2 °C | stable | 99.580% and 99.590% | 99.705% and 99.711% | higher than 99.5% | stable | 99.5% | <10 | Small needles | 188.6° ° C. | very slightly hygroscopic | stable | no change | 1.4 | same polymorphic form (Form 1) |  |  |  |  |  | Form obtained from slurry (XRPD) ([2]; acetic acid, all time points): Form 1; Form obtained from slurry (XRPD) ([2]; ethyl acetate, all time points): Form 1; Time to full conversion to Form 5 in slurry ([2]; water and water/acetic acid (80:20 v/v)): ≤ 10 min; Form obtained from slurry (XRPD) ([2]; water, all time points (10 minutes to 28 hours)): Form 5; Form obtained from slurry (XRPD) ([2]; water/acetic acid (80/20 v/v), all time points): Form 5; N-acetyl-D-glucosamine Area % (HPLC) [3, 12]: 0.079% and 0.081%; N-acetyl-D-glucosamine Area % (HPLC) ([3]; after 1 week under 80° C.): 0.062%; N-acetyl-D-glucosamide known impurity [3, 13]: 0.076%; Stability - XRPD post Stability ([4]; no single condition stated): no change; solubility ([6]; aqueous, read-out: Approximate solubility): 98.5 g/L (≈ 318 mM); solubility ([6]; approximate, solvent addition, read-out: Aqueous Solubility, Solubility in g/L): 98.5 g/L (≈ 318 mM); Form recovered from competitive slurry between Forms 1 and 2 ([7]; acetic acid): mixture of Forms 1 and 3; Form recovered from competitive slurry between Forms 1 and 3 ([7]; acetic acid): mixture of Form 1 and 3; Form recovered from competitive slurry between Forms 1 and 2 [7, 14]: Form 1 is recovered; Form recovered from competitive slurry between Forms 1 and 3 [7, 14]: Form 1 is recovered; Relative stability, competitive slurries between Forms 1 and 2 ([7]; all studied conditions): more stable than Form 2; Relative stability, competitive slurries between Forms 1 and 3 ([7]; all studied conditions except in acetic acid): more stable than Form 3; Overall relative stability of the form ([7]; competitive slurries, most of the studied conditions): thermodynamically most stable form |
| CC(=O)N[C@H]1[C@H]([C@H](O)[C@H](O)CO)OC(O)(C(=O)O)C[C@@H]1O (stereo partly drawn) [Form 3, N-acetylneuraminic acid] | 176.2° ° C. | moderate chemical stability | 98.011% and 98.031% | 99.684% and 99.715% | higher than 98% | not stable | 99.8% | <30 | Small needles | 107° ° C. and 181.0° ° C. |  |  | change |  | converts to Form 1 | 15.3 | (80° C.) | to Form 2 | converts to Form 2 | Form 2 at 80 °C | Sialic acid Area % (HPLC) ([3]; after 1 week under 80° C.): 99.526% and 99.523%; Stability - XRPD post Stability ([4]; at RT): Form 2 at RT; Approximate solubility ([6]; aqueous): 188.2 mg/mL; Aqueous Solubility, Solubility in g/L ([6]; approximate, solvent addition): 188.2 g/L; DVS (hygroscopicity) [10]: Goes to form 1; GVS weight loss (desolvation) ([10]; on increase of humidity): 16%; DVS, RH at which the form goes to form 1 ([10]; relative humidity): RH >50% |
| CC(=O)N[C@H]1[C@H]([C@H](O)[C@H](O)CO)OC(O)(C(=O)O)C[C@@H]1O (stereo partly drawn) [Form 4, N-acetylneuraminic acid] |  |  |  |  |  |  |  |  |  |  |  |  |  |  |  |  |  |  |  |  | Form after desolvation (XRPD) ([11]; 15 min at 100° C. under vacuum): converted to Form 1 |
| CC(=O)N[C@H]1[C@H]([C@H](O)[C@H](O)CO)OC(O)(C(=O)O)C[C@@H]1O (stereo partly drawn) [Form 5, N-acetylneuraminic acid] |  |  | 99.899% and 99.919% |  |  |  | 99.80% and 99.90% | < 100 | Blocks |  | very slightly hygroscopic | stable | no change | 1.45 | same polymorphic form (Form 5) | 10.5 | (88.4° C.) | converts to an unknown form | stable | New form 80 °C | HPLC (purity) ([3]; after 1 week at 80° C.): 96.8%; Sodium Pyruvate Area % (HPLC) ([3]; after 1 week under 80° C.): 0.559%; HPLC (purity) ([3]; after 1 week, both ambient and 40° C./75% RH samples): higher than 99.9%; Area % Acetic acid (HPLC) ([3]; stability under 80° C.): 0.000%; Area % N-acetyl-D-glucosamine (HPLC) ([3]; stability under 80° C.): 0.000%; Area % N-acetyl-D-mannosamine (HPLC) ([3]; stability under 80° C.): 0.000%; Physical form (XRPD) after stress ([4]; 1 week at 40° C./75% RH): stable; Stability - XRPD post Stability ([4]; at RT): Form 5 at RT; Area % Sodium Pyruvate (HPLC) ([5]; no stress condition stated): 0.000%; Form after dehydration (XRPD) ([11]; held at 90° C. for 35 min in TG/DTA apparatus): unknown form; Approximate solubility ([6]; aqueous): 96.6 mg/mL; Aqueous Solubility, Solubility in g/L ([6]; approximate, solvent addition): 96.6 g/L |
